“And” between values parts separate entries of the source, which are not always exact repeats. Equal values may be shown once.
What was measured:
[1] = tested on: Schistosoma Mansoni cercariae; conditions: 160 mg./kg. subcutaneously; cited from earlier work
Plasmodium berghei = conditions: mice; 160 mg./kg. subcutaneously; cited from earlier work
[2] = tested on: unanesthetized normotensive rats; assay: Hypotensive effect (mean arterial pressure) in unanesthetized normotensive rats, oral aqueous suspension; format: in vivo, rat; conditions: for B.P. Change: individual rats
Method: An aqueous suspension for oral administration is prepared by suspending the essential active ingredient at a concentration of 10 mg./ml. in an aqueous solution containing 1% of sodium carboxymethylcellulose. This suspension is used for bringing about hypotensive effects in unanesthetized normotensive rats. The rats are prepared for measuring blood pressure directly from the aorta through a chronic indwelling cannula (Weeks and Jones, Proc. Soc. Exptl. Biol. and Med., 104, 646, 1960). Mean arterial pressure is measured prior to and at four hours and 24 hours after drug administration at a specified dose.

[3] = tested on: male mice (motor activity); assay: Inhibition of motor activity of mice on drug-containing diet (actophotometers); format: in vivo, mouse; conditions: after 20 hours on diet
Method: The essential active ingredient is suspended in a normal mouse diet to provide a concentration in the diet of from about 0.03 to about 0.3%. Groups of male mice, 18-22 gm. each, are fed a stock diet containing various concentrations of the essential active ingredient. Motor activity is determined after 20 hours on the diet, four groups of two mice from each test group being placed in actophotometers. After a ten minute acclimation period, motor activity is recorded for a ten minute period with the following results: […]

## CN1CCN(C(=O)c2ccc(Nc3ccnc4cc(Cl)ccc34)cc2)CC1 [1-[p-[(7-chloro-4-quinolyl)amino]-N,N-(3-methyl-3-azapentamethylene]benzamide]
[1]
  activity against Schistosoma Mansoni cercariae in mice: Slight activity
Plasmodium berghei
  activity against Plasmodium berghei: Slight activity

## CN1CCN(C(=O)c2ccc(Nc3ccnc4cc(C(F)(F)F)ccc34)cc2)CC1 [essential active ingredient, p-[(7-trifluoromethyl-4-quinolyl)amino]-N,N-(3-methyl-3-azapentamethylene)benzamide]
[2]; oral 1 mg./kg., 4 hr.
  B.P. Change: 0 mm Hg
[2]; oral 1 mg./kg., 24 hr.
  B.P. Change: -10 mm Hg and 0 mm Hg
[2]; oral 3.12 mg./kg., 4 hr.
  B.P. Change: -18 mm Hg and +12 mm Hg and 0 mm Hg
[2]; oral 3.12 mg./kg., 24 hr.
  B.P. Change: -18 mm Hg and -10 mm Hg
[2]; oral 6.35 mg./kg., 4 hr., average of 4 rats (initial avg 138)
  B.P. Change, avg: -13 mm Hg
[2]; oral 6.35 mg./kg., 4 hr.
  B.P. Change: -14 mm Hg and -16 mm Hg
[2]; oral 6.35 mg./kg., 24 hr., average of 4 rats (initial avg 138)
  B.P. Change, avg: -12 mm Hg
[2]; oral 6.35 mg./kg., 24 hr.
  B.P. Change: -10 mm Hg and -14 mm Hg
[2]; oral 12.5 mg./kg., 24 hr., average of 4 rats (initial avg 132)
  B.P. Change, avg: -17 mm Hg
[2]; oral 12.5 mg./kg., 24 hr.
  B.P. Change: -24 mm Hg and -12 mm Hg
[2]; oral 25 mg./kg., 4 hr., average of 4 rats (initial avg 138)
  B.P. Change, avg: -18 mm Hg
[2]; oral 25 mg./kg., 4 hr.
  B.P. Change: -22 mm Hg and -30 mm Hg and -12 mm Hg
[2]; oral 25 mg./kg., 24 hr., average of 4 rats (initial avg 138)
  B.P. Change, avg: -23 mm Hg
[2]; oral 25 mg./kg., 24 hr.
  B.P. Change: -22 mm Hg and -28 mm Hg and -20 mm Hg
[2]; oral 50 mg./kg., 4 hr., average of 4 rats (initial avg 133)
  B.P. Change, avg: -13 mm Hg
[2]; oral 50 mg./kg., 4 hr.
  B.P. Change: -16 mm Hg and -22 mm Hg
[2]; oral 50 mg./kg., 24 hr., average of 4 rats (initial avg 133)
  B.P. Change, avg: -17 mm Hg
[2]; oral 50 mg./kg., 24 hr.
  B.P. Change: -22 mm Hg and -28 mm Hg and 0 mm Hg
[3]; 0.1% conc. in diet, 24 hour drug intake 95 mg./kg.
  % Inhibition Motor Activity: 96%
[3]; 0.3% conc. in diet (third line), 24 hour drug intake 47 mg./kg.
  % Inhibition Motor Activity: 68%
[3]; 0.3% conc. in diet, 24 hour drug intake 94 mg./kg.
  % Inhibition Motor Activity: 92%

## CN1CCN(C(=O)c2cccc(Nc3ccnc4cc(Cl)ccc34)c2)CC1 [its meta isomer]
[1]
  activity against Schistosoma Mansoni cercariae in mice: Slight activity
Plasmodium berghei
  activity against Plasmodium berghei: Slight activity

Source: US4025629A, “P-(trifluoromethylquinolylamino)benzamides, pharmaceutical dosage forms and method of treatment” (The Upjohn Company, priority 1975, dated 1977)
